Source: US20100168137A1, “COMBINATION FOR USE IN THE TREATMENT OF INFLAMMATORY DISORDERS” (priority 2006, published 2010)

Assays:
MonoMac-6 (MM6) cells = experiment: MonoMac-6 macrophage proliferation (WST-1 reagent); type: cell-based, human; conditions: 48 hours; for inhibitory effect on MM6 proliferation at 10 μM (in words): WST-1, n=5, data not shown; for inhibition at 100 µM: Homo sapiens, MONO-MAC-6, 100 μM final concentration of each drug, WST-1, mean value n=5, versus untreated cells
Protocol: Cells from the human macrophage cell-line MonoMac-6 (MM6) (Ziegler-Heitbrock et al, Int. J. Cancer, 41, 456 (1988)) were cultured (37° C./5% CO2) in RPMI-1640 medium supplemented with 1 mM sodium pyruvate, 1×nonessential amino acids, 1-100 μg/mL insulin, 1 mM oxalacetic acid, 100 units/mL penicillin, 100 μg/mL streptomycin and 10% (v/v) fetal bovine serum. At the start of the experiment, MM6 cells were seeded in 96-well plates at a density of 1×10^5 cells/mL (100 μl per well). Proliferation of the MM6 cells was measured using the Cell Proliferation Reagent WST-1 (Roche Diagnostics Scandinavia AB, Bromma, Sweden) or by cell counting using a microscope. The WST-1 reagent is designed to be used for spectrophotometric quantification of e.g. cell growth in proliferation assays and was used according to the manufacturers' instructions. […] Stock solutions of pemirolast (potassium salt purchased from American Custom Chemicals Corporation, San Diego, USA) and ramatroban (purchased from Cayman Chemical, Ann Arbor, Mich., USA as free acid and transferred into sodium salt by adding one equivalent of aqueous NaOH) were made in sterile saline.
The effects of pemirolast and/or ramatroban (added at the start of the experiments) on MM6 cell proliferation were studied 48 hours after start of the experiments using the WST-1 reagent described above.

[1] = test system: Macrophage inflammatory protein-2 (MIP-2), also designated chemokine (C-X-C motif) ligand 2 (CXCL2); experiment: MIP-2 gene expression (microarray) in balloon-injured rat carotid artery; type: in vivo; conditions: for effect on MIP-2 gene expression (in words): 5 mg/kg of each drug s.c. 60 minutes before injury, 8 hours after injury, versus saline control; for mean MIP-2 signal intensity: male Sprague-Dawley rats, 5 mg/kg of each drug s.c. 60 minutes before carotid balloon injury, tissue taken 8 hours after injury, 3 rats per group, saline control 203
[2] = test system: Platelet derived growth factor, alpha (PDGFa); experiment: PDGFa gene expression (microarray) in balloon-injured rat carotid artery; type: in vivo; conditions: for effect on PDGFa gene expression (in words): 5 mg/kg of each drug s.c. 60 minutes before injury, 8 hours after injury, versus saline control; for mean PDGFa signal intensity: male Sprague-Dawley rats, 5 mg/kg of each drug s.c. 60 minutes before carotid balloon injury, tissue taken 8 hours after injury, 3 rats per group, saline control 528

Row | Structure (SMILES) | inhibitory effect on MM6 proliferation at 10 μM (in words) (MonoMac-6 (MM6) cells) | inhibition at 100 µM (MonoMac-6 (MM6) cells) | effect on MIP-2 gene expression (in words) [1] | mean MIP-2 signal intensity [1] | effect on PDGFa gene expression (in words) [2] | mean PDGFa signal intensity [2]
1 | Cc1cccn2c(=O)c(-c3nnn[nH]3)cnc12 [pemirolast] | very similar to that of 100 μM of pemirolast | 9.4% | did not reduce MIP-2 gene expression levels | 710 | did not reduce PDGFa gene expression levels | 800
2 | O=C(O)CCn1c2c(c3ccccc31)C[C@H](NS(=O)(=O)c1ccc(F)cc1)CC2 [ramatroban] | less that that of 100 μM of ramatroban | 16.8% | did not reduce MIP-2 gene expression levels | 326 | did not reduce PDGFa gene expression levels | 566
